Assay results as given in patent US20240041042A1, “1-(PYRIDYL)-5-AZINYLPYRAZOLE DERIVATIVES, AND THEIR USE FOR CONTROL OF UNDESIRED PLANT GROWTH” (Bayer Aktiengesellschaft, priority 2020, published 2024).
Like-named read-outs stand apart in the source and are kept apart here.

Assays:
Format in all cases: in vivo
[1] = test system: Pharbitis purpurea (PHBPU); experiment: Pre-emergence herbicidal action against PHBPU; details: dosage 320 g/ha
In short: (§1)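 Pre-emergence soil-surface spray, WP/EC formulation, 0.5% additive, 600 l/ha water, rates of 320 g/ha or lower. Greenhouse, ~3 wk. Visual score, % of untreated control (100% = plants dead, 0% = like control).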

[2] = test system: Verconica persica (VERPE); experiment: Pre-emergence herbicidal action against VERPE
In short: as §1

Oryza sativa (ORYSA) = details: crop plant compatibility, 80 g/ha, effect in comparison to untreated controls
In short: (§2)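 Visual rating (% effect vs. untreated plants; 100% = plant death) made about 3 weeks after treatment. Plants had been sprayed at one-leaf stage, 2–3 weeks post-sowing, with aqueous WP/EC preparations containing 0.5% additive, 600 l/ha water volume; a, b, c mark dose levels.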

Zea mays (ZEAMX) [3] = details: crop plant compatibility, effect vs untreated controls
In short: as §2

[4] = test system: Matricaria inodora (MATIN); experiment: Post-emergence herbicidal action against MATIN
In short: (§3)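 Doses of 320 g/ha or lower, suffixes a, b and c marking different dosages, were applied post-emergence at the one-leaf stage in 600 l/ha water with 0.5% additive. Damage was assessed visually after about 3 weeks in the greenhouse.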

[5] = test system: Triticum aestivum (TRZAS); details: pre-emergence, 80 g/ha, crop plant compatibility, in comparison to untreated controls
In short: (§4)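 Crop injury rated visually in percent against untreated plants roughly 3 weeks after treatment (0% no effect, 100% plants dead). Compounds, as WP or EC with 0.5% additive in 600 l/ha water, were applied to the covering soil right after sowing; greenhouse growth. Suffixes a, b, c denote different dosages.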

Setaria viridis (SETVI) [6] = experiment: Pre-emergence herbicidal action against SETVI; details: dosage 320 g/ha
In short: as §1

[7] = test system: Polygonum convolvulus (POLCO); experiment: Pre-emergence herbicidal action against POLCO
In short: as §1

[8] = test system: Abutilon theophrasti (ABUTH); experiment: Post-emergence herbicidal action against ABUTH; details: visual rating about 3 weeks after treatment vs untreated controls (100% = plants have died, 0% = like control plants)
In short: as §3

Lolium rigidum (LOLRI) = experiment: Pre-emergence herbicidal action against LOLRI; details: dosage 320 g/ha
In short: as §1

[9] = test system: Digitaria sanguinalis (DIGSA); experiment: Pre-emergence herbicidal action against DIGSA
In short: as §1

[10] = test system: Amaranthus retroflexus (AMARE); experiment: Pre-emergence herbicidal action against AMARE; details: visual scoring after about 3 weeks vs untreated controls
In short: as §1

[11] = test system: Amaranthus retroflexus (AMARE); experiment: Post-emergence herbicidal action against AMARE
In short: as §3

[12] = test system: Polygonum convolvulus (POLCO); experiment: Post-emergence herbicidal action against POLCO
In short: as §3

Avena fatua (AVEFA) [13] = experiment: Pre-emergence herbicidal action against AVEFA; details: 320 g/ha, visual scoring after about 3 weeks vs untreated controls
In short: as §1

[14] = test system: Verconica persica (VERPE); experiment: Post-emergence herbicidal action against VERPE
In short: as §3

Viola tricolor (VIOTR) [15] = experiment: Post-emergence herbicidal action against VIOTR
In short: as §3

[16] = test system: Echinochloa crus-galli (ECHCG); experiment: Pre-emergence herbicidal action against ECHCG; details: dosage 320 g/ha
In short: as §1

[17] = test system: Alopecurus myosuroides (ALOMY); experiment: Post-emergence herbicidal action against ALOMY; details: 320 g/ha, visual rating about 3 weeks after treatment vs untreated controls (100% = plants have died, 0% = like control plants)
In short: as §3

Viola tricolor (VIOTR) [18] = experiment: Pre-emergence herbicidal action against VIOTR
In short: as §1

[19] = test system: Matricaria inodora (MATIN); experiment: Pre-emergence herbicidal action against MATIN; details: dosage 320 g/ha
In short: as §1

[20] = test system: Pharbitis purpurea (PHBPU); experiment: Post-emergence herbicidal action against PHBPU
In short: as §3

Avena fatua (AVEFA) [21] = experiment: Post-emergence herbicidal action against AVEFA; details: 320 g/ha, visual rating about 3 weeks after treatment
In short: as §3

[22] = test system: Echinochloa crus-galli (ECHCG); experiment: Post-emergence herbicidal action against ECHCG; details: dosage 320 g/ha
In short: as §3

Setaria viridis (SETVI) [23] = experiment: Post-emergence herbicidal action against SETVI; details: dosage 320 g/ha
In short: as §3

[24] = test system: Alopecurus myosuroides (ALOMY); experiment: Pre-emergence herbicidal action against ALOMY; details: scored visually after about 3 weeks, 100% = plants have died
In short: as §1

Zea mays (ZEAMX) [25] = details: pre-emergence, crop plant compatibility, in comparison to untreated controls
In short: as §4

[26] = 320 g/ha, visual rating about 3 weeks after treatment

Compound: COC(=O)[C@@H](C)Oc1nn(-c2ncccc2F)c(-c2cccnc2)c1Br [Example I-03]
- Pre-emergence action against PHBPU in % [1]: 90%
- Pre-emergence action against VERPE in % ([2]; dosage 80 g/ha): 90%
- Pre-emergence action against VERPE in % ([2]; dosage 320 g/ha): 100%
- Post-emergence action against ORYSA in % (Oryza sativa (ORYSA)): 0%
- Post-emergence action against ZEAMX in % (Zea mays (ZEAMX) [3]; 80 g/ha): 0%
- Post-emergence action against MATIN in % ([4]; dosage 80 g/ha): 80%
- Post-emergence action against MATIN in % ([4]; dosage 320 g/ha): 90%
- Pre-emergence action against TRZAS in % [5]: 10%
- Pre-emergence action against SETVI in % (Setaria viridis (SETVI) [6]): 100%
- Pre-emergence action against POLCO in % ([7]; dosage 80 g/ha): 90%
- Pre-emergence action against POLCO in % ([7]; dosage 320 g/ha): 100%
- Post-emergence action against ABUTH in % ([8]; 80 g/ha): 80%
- Post-emergence action against ABUTH in % ([8]; 320 g/ha): 90%
- Pre-emergence action against LOLRI in % (Lolium rigidum (LOLRI)): 100%
- Pre-emergence action against DIGSA in % ([9]; 80 g/ha, visual scoring after about 3 weeks vs untreated controls): 90%
- Pre-emergence action against DIGSA in % ([9]; dosage 320 g/ha): 100%
- Pre-emergence action against AMARE in % ([10]; 80 g/ha): 90%
- Pre-emergence action against AMARE in % ([10]; 320 g/ha): 100%
- Post-emergence action against AMARE in % ([11]; 80 g/ha, visual rating about 3 weeks after treatment vs untreated controls (100% = plants have died, 0% = like control plants)): 80%
- Post-emergence action against AMARE in % [11, 26]: 90%
- Post-emergence action against POLCO in % ([12]; dosage 80 g/ha): 90%
- Post-emergence action against POLCO in % ([12]; dosage 320 g/ha): 90%
- Pre-emergence action against AVEFA in % (Avena fatua (AVEFA) [13]): 80%
- Post-emergence action against VERPE in % ([14]; 320 g/ha, VERPE): 90%
- Post-emergence action against VERPE in % ([14]; dosage 80 g/ha): 80%
- Post-emergence action against VIOTR in % (Viola tricolor (VIOTR) [15]; 80 g/ha): 90%
- Post-emergence action against VIOTR in % (Viola tricolor (VIOTR) [15]; 320 g/ha): 90%
- Pre-emergence action against ECHCG in % [16]: 80%
- Post-emergence action against ALOMY in % [17]: 100%
- Pre-emergence action against VIOTR in % (Viola tricolor (VIOTR) [18]; 320 g/ha, Viola tricolor): 100%
- Pre-emergence action against VIOTR in % (Viola tricolor (VIOTR) [18]; dosage 80 g/ha): 100%
- Pre-emergence action against MATIN in % [19]: 100%
- Post-emergence action against PHBPU in % ([20]; dosage 80 g/ha): 90%
- Post-emergence action against PHBPU in % ([20]; dosage 320 g/ha): 100%
- Post-emergence action against AVEFA in % (Avena fatua (AVEFA) [21]): 90%
- Post-emergence action against ECHCG in % [22]: 90%
- Post-emergence action against SETVI in % (Setaria viridis (SETVI) [23]): 90%
- Pre-emergence action against ALOMY ([24]; 80 g/ha): 90%
- Pre-emergence action against ALOMY ([24]; 320 g/ha): 100%

Compound: CCOC(=O)COc1nn(-c2ccccn2)c(-c2ccc(Cl)nc2)c1Br [Example I-239]
- Post-emergence action against ORYSA in % (Oryza sativa (ORYSA)): 0%
- Post-emergence action against ZEAMX in % (Zea mays (ZEAMX) [3]; 80 g/ha): 0%
- Post-emergence action against ZEAMX in % (Zea mays (ZEAMX) [3]; 320 g/ha): 20%
- Post-emergence action against MATIN in % ([4]; dosage 320 g/ha): 80%
- Pre-emergence action against ZEAMX in % (Zea mays (ZEAMX) [25]; 80 g/ha): 0%
- Pre-emergence action against ZEAMX in % (Zea mays (ZEAMX) [25]; 320 g/ha): 20%
- Pre-emergence action against TRZAS in % [5]: 20%
- Pre-emergence action against DIGSA in % ([9]; dosage 320 g/ha): 90%
- Pre-emergence action against AMARE in % ([10]; 80 g/ha): 80%
- Pre-emergence action against AMARE in % ([10]; 320 g/ha): 90%
- Post-emergence action against AMARE in % [11, 26]: 80%
- Post-emergence action against POLCO in % ([12]; dosage 80 g/ha): 80%
- Post-emergence action against POLCO in % ([12]; dosage 320 g/ha): 80%
- Post-emergence action against VERPE in % ([14]; 320 g/ha, VERPE): 80%
- Post-emergence action against VERPE in % ([14]; dosage 80 g/ha): 80%
- Post-emergence action against VIOTR in % (Viola tricolor (VIOTR) [15]; 80 g/ha): 80%
- Post-emergence action against VIOTR in % (Viola tricolor (VIOTR) [15]; 320 g/ha): 80%
- Post-emergence action against PHBPU in % ([20]; dosage 80 g/ha): 80%
- Post-emergence action against PHBPU in % ([20]; dosage 320 g/ha): 90%
